Laboratory results taken from patent US4191738A, “Immunoassay for N-desmethyldiazepam” (Hoffmann-La Roche Inc., priority 1978, dated 1980).
Values joined by “and” are separate entries in the source; they are usually repeats but may differ in a detail not shown here. Identical values can stand only once.

Key:
[1] = tested on: antiserum to N-desmethyldiazepam; test: RIA cross-reactivity with the antiserum to N-desmethyldiazepam; format: binding, New Zealand white rabbit; details: for % Cross-reaction: determined at 50% inhibition of antibody-bound ^3 H-N-desmethyldiazepam; for interference (cross-reactivity in words): RIA antiserum to N-desmethyldiazepam
Method: (§1) Two New Zealand white rabbits were immunized by intradermal injection of the immunogen as an emulsion in Freund's complete adjuvant (1 mg/ml) using the protocol of Dixon et al. supra. The animals were then boosted at monthly intervals by intravenous and subcutaneous injection of 100 μg of the immunogen as a solution in isotonic saline via both routes. Serum was harvested at 10 to 14 days following each booster and stored at -20° C.
The assay was carried out in 12×75 mm glass tubes using 0.01 M Tris buffer (pH 7.5) containing 0.9% NaCl and 0.1% sodium azide. A calibration curve was generated by addition of ^3 H-N-desmethyldiazepam (15,000 cpm) in 0.5 ml of buffer to tubes containing 0.5 to 20 ng of unlabelled N-desmethyldiazepam in 50 μl of control plasma or blood followed by 0.4 ml of suitably diluted antiserum. Appropriate controls were included to determine nonspecific (i.e. absence of antiserum) and specific binding of the tracer. Following incubation at room temperature for 0.5 to 1 hr, an equal volume (1 ml) of saturated ammonium sulfate (adjusted to pH 7.5 with 5 N NaOH) was added to precipitate antibody-bound radioligand. The mixture was vortexed and after standing for 10 min at 4° C. in a refrigerated centrifuge, the tubes were centrifuged at 2500×g for 20 min. The supernate was removed by aspiration and the precipitate, containing the antibody-bound radioligand, dissolved in 0.4 ml of water. (When whole blood samples were assayed, the precipitate was washed twice with 1 ml of 50% saturated ammonium sulfate prior to its dissolution in water. This procedure removed virtually all of the heme proteins which might otherwise interfere with the subsequent liquid scintillation counting procedure.) After the addition of 3 ml of Aquasol (New England Nuclear, Boston, Mass. 02118) each tube was vortexed immediately to give a clear solution, capped with a Caplug (size 5X, Protective Closures Co., Inc., Buffalo, N.Y. 14207) and the tube counted directly as described by Dixon and Cohen, Clin. Chem, 22, 1746 (1976) in a modified liquid scintillation counter (Packard Tri-Carb, Model 3255, Packard Instrument Co., Ill. 60515). The counting efficiency for tritium under these conditions was 32%.
All samples were assayed in duplicate and the data calculated as outlined by Robard, Clin. Chem. 20, 1255 (1970) using a digital computer for iterative weighted linear regression analysis of logit B/Bo versus log dose where B and Bo are the amounts of antibody-bound radioligand in the presence and absence of unlabelled drug, respectively. Both B and Bo were corrected for nonspecific binding.
The specificity of the RIA was established by determination of the extent of cross-reactivity of a number of potential competitors with the antiserum and by comparison of the RIA method with the EC-GC procedure of de Silva et al., Anal. Chem. 48, 10 (1976).
*Determined at 50% inhibition of antibodybound ^3

[2] = tested on: antibodies elicited by N-desmethyldiazepam-bovine gamma globulin conjugate; details: 3'-carboxypropyl linked conjugate, U.S. Pat. No. 4,046,636 Example 8; cited from earlier work
[3] = tested on: antiserum to N-desmethyldiazepam; test: RIA calibration, binding of ^3 H-N-desmethyldiazepam to antiserum, sensitivity and precision; design: species or system New Zealand white rabbit
Method: as §1
The assay was carried out in 12×75 mm glass tubes using 0.01 M Tris buffer (pH 7.5) containing 0.9% NaCl and 0.1% sodium azide. […] (When whole blood samples were assayed, the precipitate was washed twice with 1 ml of 50% saturated ammonium sulfate prior to its dissolution in water. This procedure removed virtually all of the heme proteins which might otherwise interfere with the subsequent liquid scintillation counting procedure.) After the addition of 3 ml of Aquasol (New England Nuclear, Boston, Mass. 02118) each tube was vortexed immediately to give a clear solution, capped with a Caplug (size 5X, Protective Closures Co., Inc., Buffalo, N.Y. 14207) and the tube counted directly as described by Dixon and Cohen, Clin. Chem, 22, 1746 (1976) in a modified liquid scintillation counter (Packard Tri-Carb, Model 3255, Packard Instrument Co., Ill. […]

[4] = cited from earlier work

Molecule | % Cross-reaction [1] | cross-reaction with prior-art antibodies [2] | further results
CNC1=Nc2ccc(Cl)cc2C(c2ccccc2)=[N+]([O-])C1 [Chlordiazepoxide] | 0.2% | cross-react strongly | % Cross-reaction ([1]; listed as chlordiazepoxide): less than 1%
O=C(O)C1N=C(c2ccccc2)c2cc(Cl)ccc2NC1=O (stereo not shown) [Clorazepate] | > 50% |  | % Cross-reaction ([1]; listed as clorazepate): greater than 50%
CN(C)CCC=C1c2ccccc2CCc2ccccc21 [Amitriptyline] | < 0.01% |  | interference (cross-reactivity in words) [1]: negligible interference; % Cross-reaction ([1]; listed as amitriptyline): less than 1%
Nc1ccc2c(c1)C(c1ccccc1Cl)=NCC(=O)N2 [7-Aminoclonazepam] | 0.07% |  | 
^3 H-N-desmethyldiazepam |  |  | added radioligand bound by antiserum ([3]; 0.5 μl of antiserum, after second booster immunization): approximately 50%
CNCCC=C1c2ccccc2CCc2ccccc21 [Nortriptyline] | < 0.01% |  | 
O=C1C[N+]([O-])=C(c2ccccc2)c2cc(Cl)ccc2N1 [Demoxepam] | 0.6% |  | % Cross-reaction ([1]; listed as demoxepam): less than 1%
O=C1CN=C(c2ccccc2)c2cc(Cl)ccc2N1 [N-desmethyldiazepam] | 100% | cross-react strongly | inhibition of binding of the radioligand to the antiserum ([3]; 0.5 ng standard, plasma): greater than 10%
CN1C(=O)CN=C(c2ccccc2)c2cc(Cl)ccc21 [Diazepam] | 0.6% and 0.5% | cross-react strongly | % Cross-reaction ([1]; listed as diazepam): less than 1%
O=C1CN=C(c2ccccc2Cl)c2cc([N+](=O)[O-])ccc2N1 [Clonazepam] | 0.3% |  | interference (cross-reactivity in words) [1]: negligible interference; % Cross-reaction ([1]; listed as clonazepam): less than 1%
O=C1Nc2ccc(Cl)cc2C(c2ccccc2)=NC1O (stereo not shown) [Oxazepam] | 5.5% | cross-react strongly | presence in plasma as metabolite of diazepam and clorazepate [4]: negligible quantities
